Experimental data from patent publication US20140018242A1, “METHOD OF CROP ENHANCEMENT” (SYNGENTA PARTICIPATIONS AG, priority 2010, published 2014).

Tested on: Soybeans (Glycine max)
Test: Seed application on soybeans in pouch, plant growth effects (shoot length, root system)
Type: in vivo
Conditions: AI concentration 4 ppm, 14 days, additional growth vs blank formulation check
Protocol: The formulated test compounds were added to a defined amount of water. This solution was applied into a pouch which was previously equipped with a filter paper. After the application soybean seeds were sown into the upper fault of the filter paper. The prepared pouches were then incubated for 14 days at 25° C. and a relative humidity of 65% with a photo period of 16 h. The evaluation was made by assessing the shoot length and the root system. Data represent the average of 10 replicates (1seed/plant per pouch).

Row | SMILES | Mean shoot height increase (%) | Mean shoot height increase in cm [cm]
1 | CON1CCC2(CC1)C(O)=C(c1c(C)cc(C)cc1C)C(=O)N2C [Compound P2.2, 4-hydroxy-8-methoxy-1-methyl-3-(2,4,6-trimethyl-phenyl)-1,8-diaza-spiro[4.5]dec-3-en-2-one] | 7.2 | 1.4

Same assay, conditions: AI concentration 5 ppm, 14 days, additional growth vs blank formulation check

Row | SMILES | Mean shoot height increase (%) | Mean shoot height increase in cm [cm]
2 | CCOC(=O)OC1=C(c2c(C)cc(C)cc2C)C(=O)N(C)C12CCN(OC)CC2 [Compound P1.2, Carbonic acid ethyl ester 8-methoxy-1-methyl-2-oxo-3-(2,4,6-trimethyl-phenyl)-1,8-diaza-spiro[4.5]dec-3-en-4-yl ester] | 8.5 | 1.7
3 | CCOC(=O)OC1=C(c2c(C)cc(Br)cc2C)C(=O)N(C)C12CCN(OC)CC2 [Compound P1.12] | 16.0 | 3.8
4 | CCOC(=O)OC1=C(c2c(C)ccc(C)c2C)C(=O)N(C)C12CCN(OC)CC2 [Compound P1.21] | 24.5 | 5.8
5 | CCOC(=O)OC1=C(c2c(C)cc(C)cc2C)C(=O)N(OCC)C12CCN(OC)CC2 [Compound P1ii.15] | 38.9 | 3.8
6 | CCOC(=O)OC1=C(c2cc(C)c(C)cc2C)C(=O)N(OCOC)C12CCN(OC)CC2 [Compound P1ii.56] | 7.2 | 1.7
7 | CCOC(=O)OC1=C(c2cc(C)c(C)cc2C)C(=O)N(OC)C12CCN(OC)CC2 [Compound P1ii.57] | 10.2 | 2.4
8 | C=CCOC(=O)OC1=C(c2c(C)cc(C)cc2C)C(=O)N(C)C12CCN(OC)CC2 [T1.070, wherein G is COOCH2CH═CH2] | 10.2 | 2.1
9 | CCOC(=O)OC1=C(c2c(C)cc(Br)cc2CC)C(=O)N(C)C12CCN(OC)CC2 [T1.078, wherein G is COOCH2CH3] | 8.1 | 1.7
10 | CCOC(=O)OC1=C(c2c(C)cc(Cl)cc2OC)C(=O)N(C)C12CCN(OC)CC2 [T1.096, wherein G is COOCH2CH3] | 6.6 | 1.4
11 | CCOC(=O)OC1=C(c2c(C)cc(Cl)cc2C)C(=O)NC12CCN(OC)CC2 [T1iii.067, wherein G is COOCH2CH3] | 15.5 | 3.9
12 | CCOC(=O)OC1=C(c2c(C)cc(C)cc2CC)C(=O)NC12CCN(OC)CC2 [T1iii.071, wherein G is COOCH2CH3] | 8.6 | 1.8
13 | CCOC(=O)OC1=C(c2c(C)cc(C)cc2OC)C(=O)NC12CCN(OC)CC2 [T1iii.072, wherein G is COOCH2CH3] | 8.9 | 2.1
14 | CCOC(=O)OC1=C(c2c(C)cc(Cl)cc2OC)C(=O)NC12CCN(OC)CC2 [T1iii.096, wherein G is COOCH2CH3] | 18.4 | 3.8
15 | CCOC(=O)OC1=C(c2c(C)cc(C)cc2OC)C(=O)N(OCC)C12CCN(OC)CC2 [T3ii.072, wherein G is COOCH2CH3] | 10.6 | 2.2
16 | CCOC(=O)OC1=C(c2c(C)cc(Br)cc2CC)C(=O)N(OC2CCCO2)C12CCN(OC)CC2 (centres unmarked) [T25N.078, wherein G is COOCH2CH3] | 14.5 | 3.0

Tested on: not given
Test: not given
Conditions: not given

Row | melting point | SMILES
17 | 96 to 110 °C | CCOC(=O)OC1=C(c2cc(C)ccc2C)C(=O)N(C)C12CCN(OC)CC2 [Compound P1.1]
18 | 101 to 103 °C | CCOC(=O)OC1=C(c2c(C)cc(C)cc2C)C(=O)N(CC)C12CCN(OC)CC2 [Compound P1.8]
19 | 158 to 159 °C | CCOC(=O)OC1=C(c2cc(C)c(C)cc2Br)C(=O)N(C)C12CCN(OC)CC2 [Compound P1.20]
20 | 149 to 150 °C | CCOC(=O)OC1=C(c2cc(C)c(C)cc2Cl)C(=O)N(C)C12CCN(OC)CC2 [Compound P1.22]
21 | 116 to 119 °C | CCOC(=O)OC1=C(c2c(F)ccc(C)c2Cl)C(=O)N(OCOC)C12CCN(OC)CC2 [Compound P1ii.61]
22 | 122 to 125 °C | CCOC(=O)OC1=C(c2c(C)cc(Cl)cc2C)C(=O)N(OC)C12CCN(OC)CC2 [Compound P1ii.114]
23 | 121 to 123 °C | CON1CCC2(CC1)C(O)=C(c1cc(C)ccc1C)C(=O)N2C [Compound P2.1]
24 | 223 to 225 °C | CON1CCC2(CC1)C(O)=C(c1c(C)cc(C)cc1C)C(=O)N2CC1CC1 [Compound P2.8, 1-Cyclopropylmethyl-4-hydroxy-8-methoxy-3-(2,4,6-trimethyl-phenyl)-1,8-diaza-spiro[4.5]dec-3-en-2-one]
25 | 218 to 221 °C | CCN1C(=O)C(c2c(C)cc(C)cc2C)=C(O)C12CCN(OC)CC2 [Compound P2.11]
26 | 191 to 193 °C | CON1CCC2(CC1)C(O)=C(c1cc(C)c(C)cc1Br)C(=O)N2C [Compound P2.23]
27 | 183 to 186 °C | CON1CCC2(CC1)C(O)=C(c1cc(C)c(C)cc1C)C(=O)N2C [Compound P2.25]
28 | 191 to 192 °C | CON1CCC2(CC1)C(O)=C(c1cc(C)c(C)cc1Cl)C(=O)N2C [Compound P2.26, 3-(2-Chloro-4,5-dimethyl-phenyl)-4-hydroxy-8-methoxy-1-methyl-1,8-diaza-spiro[4.5]dec-3-en-2-one]
29 | 182 to 183 °C | CON1CCC2(CC1)C(O)=C(c1cc(Br)c(C)cc1C)C(=O)N2C [Compound P2.28]
30 | 63 to 64 °C | COCCON1C(=O)C(c2cc(Br)c(C)cc2C)=C(O)C12CCN(OC)CC2 [Compound P2ii.73]
31 | 86 to 87 °C | CON1CCC2(CC1)C(O)=C(c1cc(Br)c(C)cc1C)C(=O)N2OC [Compound P2ii.75]

Further lines, the compound ahead of its results:

Row | SMILES | melting point
32 | COCON1C(=O)C(c2cc(C)ccc2C)=C(OC(=O)CC(C)(C)C)C12CCN(OC)CC2 [Compound P1ii.5] | 93 to 95 °C
33 | COCON1C(=O)C(c2cc(C)ccc2C)=C(OC)C12CCN(OC)CC2 [Compound P1ii.31] | 91 to 93 °C
34 | COCON1C(=O)C(c2c(C)cc(-c3ccc(Cl)cc3)cc2C)=C(O)C12CCN(OC)CC2 [Compound P2ii.15, 3-(4′-Chloro-3,5-dimethyl-biphenyl-4-yl)-4-hydroxy-8-methoxy-1-methoxymethoxy-1,8-diaza-spiro[4.5]dec-3-en-2-one] | 128 °C (dec.)
35 | CON1CCC2(CC1)C(O)=C(c1c(C)cc(C)cc1C)C(=O)N2OCCOC1CCCCO1 (centres unmarked) [Compound P2ii.22] | 135 to 137 °C
36 | COCON1C(=O)C(c2c(F)ccc(C)c2Cl)=C(O)C12CCN(OC)CC2 [Compound P2ii.60] | 155 to 158 °C
37 | COCCON1C(=O)C(c2cc(Br)c(F)cc2C)=C(O)C12CCN(OC)CC2 [Compound P2ii.87] | 71 to 74 °C
38 | COCON1C(=O)C(c2cc(Br)c(F)cc2C)=C(O)C12CCN(OC)CC2 [Compound P2ii.89] | 64 to 67 °C
39 | CON1CCC2(CC1)C(O)=C(c1c(C)cc(C)cc1C)C(=O)N2OCC1CCCCC1 [Compound P2ii.96] | 169 to 172 °C
40 | COCCON1C(=O)C(c2c(C)cc(Cl)cc2C)=C(O)C12CCN(OC)CC2 [Compound P2ii.101] | 161 to 164 °C
